These results are taken from patent US20240343727A1, “PYRIDAZINONE OR PYRIDINONE COMPOUNDS, PREPARATION METHODS AND USES THEREOF” (InventisBio Co., Ltd., priority 2021, published 2024).

SMILES strings stand for the structures.

The first assay deals with T1, PARP7 (Homo sapiens, UniProt Q7Z3E1).
T1 sequence (Q7Z3E1 1-657): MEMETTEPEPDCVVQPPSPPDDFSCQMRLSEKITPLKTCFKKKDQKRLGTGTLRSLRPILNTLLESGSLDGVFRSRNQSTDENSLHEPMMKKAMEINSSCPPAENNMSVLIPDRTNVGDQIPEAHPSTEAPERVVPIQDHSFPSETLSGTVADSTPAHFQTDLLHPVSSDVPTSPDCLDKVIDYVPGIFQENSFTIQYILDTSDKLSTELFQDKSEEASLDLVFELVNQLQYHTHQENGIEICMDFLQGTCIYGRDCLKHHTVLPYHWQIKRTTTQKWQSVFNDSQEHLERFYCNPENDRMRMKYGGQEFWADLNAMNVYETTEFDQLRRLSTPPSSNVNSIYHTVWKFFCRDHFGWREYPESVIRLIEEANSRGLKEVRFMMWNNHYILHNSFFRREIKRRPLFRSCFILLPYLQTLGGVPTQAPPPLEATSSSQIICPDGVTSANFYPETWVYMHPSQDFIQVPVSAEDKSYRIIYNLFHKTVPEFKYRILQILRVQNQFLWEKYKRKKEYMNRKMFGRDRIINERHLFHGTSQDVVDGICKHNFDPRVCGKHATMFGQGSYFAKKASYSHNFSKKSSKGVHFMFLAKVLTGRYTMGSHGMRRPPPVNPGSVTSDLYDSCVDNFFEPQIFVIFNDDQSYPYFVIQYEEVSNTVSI
Description: PARP7 TR-FRET assay (binding, displacement of biotinylated Probe A). To be noted: 6 nM PARP7, 2 nM Probe A, 25° C., 30 min. The essentials: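 Compound displacement of biotinylated Probe A (2 nM) from PARP7 (6 nM) measured by TR-FRET in HEPES pH 8.0 buffer, 30 min at 25° C. Detection used ULight-anti 6xHis (4 nM) plus Eu-streptavidin (0.25 nM) for 30 min, reading the 665/615 nm ratio. % inhibition was taken against DMSO and no-enzyme wells, and IC50 from a Hill fit.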
On the technique in general: Time-resolved FRET reads energy transfer from a long-lived donor to a nearby acceptor.
`N#Cc1cnc(N2CCN(C(=O)c3cccc(Oc4n[nH]c(=O)c(C(F)(F)F)c4N4CC5(CCC5)C4)c3)CC2)nc1` [Compound 179] gave an IC50 of less than 0.1 µM.

With `COC[C@@H]1C[C@@H](OCC(=O)N2CCN(c3ncc(C(F)(F)F)cn3)CC2)c2n[nH]c(=O)c(C(F)(F)F)c2O1` [Compound 57], the IC50 was less than 0.1 µM.

As to `O=C(COC1CCOc2c1n[nH]c(=O)c2Cl)N1CCN(c2ncc(C(F)(F)F)cn2)CC1` (single isomer, unassigned) [Compound 54], the IC50 is less than 0.1 µM.

In the case of `Cc1c(Oc2cccc(C(=O)N3CCN(c4ncc(C(F)(F)F)cn4)CC3)c2)n[nH]c(=O)c1C(F)(F)F` [Compound 15], the IC50 was less than 0.1 µM.

`O=C(c1cc(Oc2n[nH]c(=O)c(C(F)(F)F)c2N2CC3(C2)CC(F)(F)C3)ccn1)N1CCN(c2cnc(C(F)(F)F)cn2)CC1` [Compound 331] registered an IC50 of less than 0.1 µM.

For `O=C(COC1CCOc2c1n[nH]c(=O)c2Cl)N1CCN(c2ncc(C(F)(F)F)cn2)CC1` (single isomer, unassigned) [Compound 53], the IC50 was less than 0.1 µM.

`COC1CC(Nc2c(Oc3cccc(C(=O)N4CCN(c5ncc(C(F)(F)F)cn5)CC4)c3)n[nH]c(=O)c2C(F)(F)F)C1` (stereo not shown) [Compound 168] had an IC50 of less than 0.1 µM.

As to `O=C(COC1CCOc2c1n[nH]c(=O)c2C(F)F)N1CCN(c2ncc(C(F)(F)F)cn2)CC1` (single isomer, unassigned) [Compound 114], the IC50 was more than 1 µM.

For `C#Cc1c2c(n[nH]c1=O)[C@H](OCC(=O)N1CCN(c3ncc(C(F)(F)F)cn3)CC1)CCO2` [Compound 12], the IC50 was less than 0.1 µM.

In turn, `O=C(CC1CN(c2n[nH]c(=O)c3c(F)cc(Cl)cc23)CCO1)N1CCN(c2ncc(C(F)(F)F)cn2)CC1` (stereo not shown) [Compound 242] had an IC50 of less than 0.1 µM.

For `CC(C)C1CN(c2c(Oc3cccc(C(=O)N4CCN(c5ncc(C(F)(F)F)cn5)CC4)c3)n[nH]c(=O)c2C(F)(F)F)C1` [Compound 183], the IC50 is less than 0.1 µM.

Molecule `CCOC1CN(c2c(Oc3cccc(C(=O)N4CCN(c5ncc(C(F)(F)F)cn5)CC4)c3)n[nH]c(=O)c2C(F)(F)F)C1` [Compound 214] returned an IC50 of less than 0.1 µM.

Regarding `O=C(CC1CN(c2cc(C(F)(F)F)c(=O)[nH]n2)CCC1(F)F)N1CCN(c2ncc(C(F)(F)F)cn2)CC1` (single isomer, unassigned) [Compound 108], the IC50 was less than 0.1 µM.

In turn, `O=C(CC1CN(c2n[nH]c(=O)c3ccccc23)CCO1)N1CCN(c2ncc(C(F)(F)F)cn2)CC1` (single isomer, unassigned) [Compound 107] registered an IC50 of 0.1 to 1 µM.

On to `O=C([C@@H]1COCCN1c1cc(C(F)(F)F)c(=O)[nH]n1)N1CCN(c2ncc(C(F)(F)F)cn2)CC1` [Compound 36], for which the IC50 is less than 0.1 µM.

`COC1CN(c2c(Oc3cccc(C(=O)N4CCN(c5ncc(C(F)(F)F)cn5)CC4)c3)n[nH]c(=O)c2C(F)(F)F)C1` [Compound 166]: the IC50 was less than 0.1 µM.

Molecule `C[C@@H]1C[C@H](OCC(=O)N2CCN(c3ncc(C(F)(F)F)cn3)CC2)c2n[nH]c(=O)c(C(F)(F)F)c2O1` [Compound 115] showed an IC50 of 0.1 to 1 µM.

In the case of `O=C(CC1CN(c2cc(C(F)(F)F)c(=O)[nH]n2)CCO1)N1CCN(c2ncc(C(F)(F)F)cn2)CC1` (single isomer, unassigned) [Compound 31], the IC50 is less than 0.1 µM.

Take `C[C@H]1CN(C(=O)c2cccc(Oc3n[nH]c(=O)c(C(F)(F)F)c3N3CC4(CCO4)C3)c2)CCN1c1ncc(C(F)(F)F)cn1` [Compound 254]: the IC50 is less than 0.1 µM.

For `O=C(c1cccc(Oc2n[nH]c(=O)c(C(F)(F)F)c2C2CC2)c1)N1CCN(c2ncc(C(F)(F)F)cn2)CC1` [Compound 173], the IC50 was less than 0.1 µM.

Molecule `N#CC1CN(c2c(Oc3cccc(C(=O)N4CCN(c5ncc(C(F)(F)F)cn5)CC4)c3)n[nH]c(=O)c2C(F)(F)F)C1` [Compound 60] had an IC50 of less than 0.1 µM.

For `O=C(CC1CN(c2cc(C(F)(F)F)c(=O)[nH]n2)c2ccccc2O1)N1CCn2c(nnc2C(F)(F)F)C1` (single isomer, unassigned) [Compound 290], the IC50 is more than 1 µM.

Consider `O=C(c1cccc(Oc2n[nH]c(=O)c(C(F)(F)F)c2N2CC3(CCO3)C2)c1)N1CC2CCC(C1)N2c1ncc(C(F)(F)F)cn1` [Compound 257], for which the IC50 is less than 0.1 µM.

On to `Cc1c(N2CCC[C@H]2CCC(=O)N2CCN(c3ncc(C(F)(F)F)cn3)CC2)n[nH]c(=O)c1C(F)(F)F` [Compound 127], for which the IC50 is less than 0.1 µM.

The molecule `O=C(CC1CN(c2n[nH]c(=O)c3ccc(N4CCCC4)cc23)CCO1)N1CCN(c2ncc(C(F)(F)F)cn2)CC1` (single isomer, unassigned) [Compound 258] registered an IC50 of less than 0.1 µM.

As for `O=C(CC1CN(c2n[nH]c(=O)c3ccc(OCC(F)F)cc23)CCO1)N1CCN(c2ncc(C(F)(F)F)cn2)CC1` (single isomer, unassigned) [Compound 210], the IC50 is less than 0.1 µM.

Take `N#Cc1ccc(N2CCN(C(=O)c3cccc(Oc4n[nH]c(=O)c(C(F)(F)F)c4N4CC5(CCC5)C4)c3)CC2)nc1` [Compound 161]: the IC50 is less than 0.1 µM.

Turning to `C#Cc1cnc(N2CCN(C(=O)c3cccc(Oc4n[nH]c(=O)c(C(F)(F)F)c4N4CC5(COC5)C4)c3)CC2)nc1` [Compound 302], the IC50 was less than 0.1 µM.

In the case of `C#Cc1cnc(N2CCN(C(=O)c3cncc(Oc4n[nH]c(=O)c(C(F)(F)F)c4N4CC5(C4)CC(F)(F)C5)c3)CC2)nc1` [Compound 299], the IC50 was less than 0.1 µM.

`CN(C)c1c(Oc2cccc(C(=O)N3CCN(c4ncc(C(F)(F)F)cn4)CC3)c2)n[nH]c(=O)c1C(F)(F)F` [Compound 83] showed an IC50 of less than 0.1 µM.

As to `O=C(CC1CN(c2cc(C(F)(F)F)c(=O)[nH]n2)c2cc(F)ccc2O1)N1CCN(c2ccc(C3CC3)cn2)CC1` (single isomer, unassigned) [Compound 301], the IC50 is more than 1 µM.

Take `O=C(CC1CN(c2cc(C(F)(F)F)c(=O)[nH]n2)c2ccccc2O1)N1CCN(c2ncc(Cl)cn2)CC1` (single isomer, unassigned) [Compound 295]: the IC50 lay in the range of 0.1 to 1 µM.

Regarding `O=C(CO[C@@H]1C[C@@H](CC2CC2)Oc2c1n[nH]c(=O)c2C(F)(F)F)N1CCN(c2ncc(C(F)(F)F)cn2)CC1` (stereo in doubt) [Compound 144], the IC50 was less than 0.1 µM.

`COCC(=O)Nc1ccc2c(c1)N(c1cc(C(F)(F)F)c(=O)[nH]n1)CC(CC(=O)N1CCN(c3ncc(C(F)(F)F)cn3)CC1)O2` (single isomer, unassigned) [Compound 284] came in with an IC50 of 0.1 to 1 µM.

In turn, `N#Cc1cnc(N2CCN(C(=O)CC3CN(c4cc(C(F)(F)F)c(=O)[nH]n4)c4ccccc4O3)CC2)nc1` (single isomer, unassigned) [Compound 250] registered an IC50 of less than 0.1 µM.

On to `COCc1ccc2c(c1)N(c1cc(C(F)(F)F)c(=O)[nH]n1)CC(CC(=O)N1CCN(c3ncc(C(F)(F)F)cn3)CC1)O2` (single isomer, unassigned) [Compound 267], for which the IC50 was less than 0.1 µM.

Molecule `O=C(CC1CN(c2cc(C(F)(F)F)c(=O)[nH]n2)c2ccccc2O1)N1CCN(c2nnc(C(F)(F)F)s2)CC1` (single isomer, unassigned) [Compound 288] registered an IC50 of more than 1 µM.

Turning to `O=C(c1cncc(Oc2n[nH]c(=O)c(C(F)(F)F)c2N2CC(C3CC3)C2)c1)N1CCN(c2ncc(C(F)(F)F)cn2)CC1` [Compound 278], the IC50 was less than 0.1 µM.

`O=C(c1cccc(Oc2n[nH]c(=O)c(C(F)(F)F)c2NC2CC3(COC3)C2)c1)N1CCN(c2ncc(C(F)(F)F)cn2)CC1` [Compound 202] registered an IC50 of less than 0.1 µM.

On to `CNC1CC(Nc2c(Oc3cccc(C(=O)N4CCN(c5ncc(C(F)(F)F)cn5)CC4)c3)n[nH]c(=O)c2C(F)(F)F)C1` (stereo not shown) [Compound 171], for which the IC50 lay within 0.1 to 1 µM.

In turn, `N#Cc1ccc2c(=O)[nH]nc(N3CCOC(CC(=O)N4CCN(c5ncc(C(F)(F)F)cn5)CC4)C3)c2c1` (single isomer, unassigned) [Compound 245] registered an IC50 of less than 0.1 µM.

The test system of a further assay is NCI-H1373 cells. Put plainly: Inhibition of cancer cell growth in NCI-H1373 cells (Cell-titer Glo, 6 days). It counts as cell-based. To be noted: Homo sapiens, NCI-H1373, 144 h, read-out: H1373 Cell Proliferation IC50. On the procedure: Biological Assay Example B: Inhibition of cancer cell growth in NCI-H1373 cells by PARP7 inhibitors
NCI-H1373 cells were cultured in RPMI 1640 medium supplemented with 10% fetal bovine serum, 100 U/mL penicillin and 100 ug/mL streptomycin in a 37° C., 5% CO2 incubator. Fifteen hundred cells were seeded into each well of 96-well plate in RPMI1640 medium containing 10% fetal bovine serum and incubated overnight. Serial diluted compounds for each well were added at a final DMSO concentration of 0.5% and a day zero plate was collected for analysis. Compounds were incubated with the cells for 6 days. Cell growth was assessed using Cell-titer Glo reagent (Promega #G^7572). The luminescence signal was collected on Tecan Spark plate reader. Cell growth is determined by correcting for the cell count on day zero. Inhibition rate is calculated with the formula of % inhibition=100*(DMSO control-compounds)/(DMSO control-Blank). Cell growth inhibition IC50 is calculated with the equation of Y-Bottom+ (Top-Bottom)/(1+10^((LogIC50−X) *Hill Slope)).
Regarding `N#Cc1cnc(N2CCN(C(=O)c3cccc(Oc4n[nH]c(=O)c(C(F)(F)F)c4N4CC5(CCC5)C4)c3)CC2)nc1` [Compound 179], the IC50 was less than 0.1 µM.

`COC[C@@H]1C[C@@H](OCC(=O)N2CCN(c3ncc(C(F)(F)F)cn3)CC2)c2n[nH]c(=O)c(C(F)(F)F)c2O1` [Compound 57]: the IC50 is less than 0.1 µM.

On to `Cc1c(Oc2cccc(C(=O)N3CCN(c4ncc(C(F)(F)F)cn4)CC3)c2)n[nH]c(=O)c1C(F)(F)F` [Compound 15], for which the IC50 fell in the range of 0.1 to 1 µM.

As for `O=C(c1cc(Oc2n[nH]c(=O)c(C(F)(F)F)c2N2CC3(C2)CC(F)(F)C3)ccn1)N1CCN(c2cnc(C(F)(F)F)cn2)CC1` [Compound 331], the IC50 is less than 0.1 µM.

`O=C(COC1CCOc2c1n[nH]c(=O)c2Cl)N1CCN(c2ncc(C(F)(F)F)cn2)CC1` (single isomer, unassigned) [Compound 53]: the IC50 was more than 1 µM.

Consider `COC1CC(Nc2c(Oc3cccc(C(=O)N4CCN(c5ncc(C(F)(F)F)cn5)CC4)c3)n[nH]c(=O)c2C(F)(F)F)C1` (stereo not shown) [Compound 168], for which the IC50 fell in the range of 0.1 to 1 µM.

As for `O=C(COC1CCOc2c1n[nH]c(=O)c2C(F)F)N1CCN(c2ncc(C(F)(F)F)cn2)CC1` (single isomer, unassigned) [Compound 114], the IC50 is more than 1 µM.

The assay is the same for the next values; noted with them: read-out: H1373 Cell Proliferation IC50.
Take `O=C(COC1CCOc2c1n[nH]c(=O)c2Cl)N1CCN(c2ncc(C(F)(F)F)cn2)CC1` (single isomer, unassigned) [Compound 54]: the IC50 was more than 1 µM.
